Source: US11771709B2, “ALK protein degradation agent and anti-tumor application thereof” (ShanghaiTech University, priority 2017, dated 2023)
Read-outs that look alike come from different tables or passages of the source.

What was measured:
[1] = tested on: ALK positive non-small cell lung cancer; settings: second line treatment (Shaw et al., 2017); cited from earlier work
[2] = tested on: NCI-H3122 (EML4-ALK, V1) cells; test: Growth inhibition IC50 in lung cancer H3122 cells (Cell Titer Blue / Cell Titer Glo)
Procedure: (§2) SR (NPM-ALK) and NCI-H2228 (EML4-ALK, V3) cells were purchased from ATCC. […] All Cells were cultured in RPMI1640 medium with 10% FBS and Penicillin-Streptomycin in 37° C. incubator with 5% CO2.
(§3) Cells were seeded at specific density in 96 well plates one day before treatment. […] Viable cells were measured via CCK8 reagent and IC50s were calculated via Prism Graphad. Experiments were repeated at least three times.

[3] = target: T1, ALK protein in H3122 (EML4-ALK) cells (Homo sapiens, UniProt Q9UM73); test: Western blot of ALK protein level (degradation, DC50), ALK phosphorylation and downstream signaling in H3122 cells; type: cell-based; settings: for ALK protein level / degradation: H3122 cells, western blot, up to 500 nM; for DC50: ALK protein degradation in H3122 cells
T1 construct: EML4 (Echinoderm microtubule-associated protein-like 4, Q9HC35) fusion partner, variant 1; host or cells: NCI-H3122 lung adenocarcinoma cells; the other entry of the earlier key: EML4 (Q9HC35, Echinoderm microtubule-associated protein-like 4)

[4] = target: T2, ALK protein in H3122 cells (Homo sapiens, UniProt Q9UM73); test: ALK protein stability after stopping translation with cycloheximide in H3122 cells; type: cell-based; settings: 0.5 uM compound, 1 ug/ml cycloheximide, 12 hours (Ceritinib), 7 hours (SIAIS074017)
T2 construct: EML4 (Echinoderm microtubule-associated protein-like 4, Q9HC35) fusion partner, variant 1; host or cells: NCI-H3122 lung adenocarcinoma cells; the other entry of the earlier key: EML4 (Q9HC35, Echinoderm microtubule-associated protein-like 4)
Procedure: The mechanism of PROTAD compound to degrade its target protein acts through recruiting E3 ubiquitining ligase to the proximity of its target protein, which leads to the target protein being highly ubiquitinzed and eventually being degraded. In order to see the mechanism of ALK PROTAD compounds we developed, we firstly examined the half-life of ALK protein. Because the total level of ALK protein was determined by both the translational activity and protein degradation, we used cyclohexmide to stop protein translation to examine the effect of ALK PROTAD compounds on ALK protein stabilities.
We listed data for Ceritinib-based ALK PROTAD compounds here as an example, and data for other ALK PROTAD compounds were tested in the same way and similar results were found. […] The difference at the total ALK protein level will reflect the different influence of drugs on protein stability.

SR (NPM-ALK) cells = test: Growth inhibition IC50 in ALCL SR cells (CCK8/WST, 72 hours); type: cell-based; settings: SR cells, WST
Procedure: as §2, §3

MOLM13 cells (FLT3-ITD) = test: Growth inhibition IC50 in FLT3-ITD AML cell line MOLM13; type: cell-based; settings: Homo sapiens, MOLM-13, MOLM13 cells
Procedure: as §3

[5] = tested on: U118MG cells (FIG-ROS1 gene fusion); test: Growth inhibition IC50 in ROS1 mutant glioblastoma cell line U118MG (72 hours); type: cell-based; settings: Homo sapiens, U-118-MG; U118MG cells, 72 hours, n = 2, reagent CTG; read-out: Half Inhibitory Concentration (IC50) Mean
[6] = tested on: SW48 cell line (EGFR G719S); test: Growth inhibition IC50 in EGFR G719S colorectal cancer cell line SW48; type: cell-based; settings: Homo sapiens, CTG, n = 2, read-out: Half Inhibitory Concentration (IC50) Mean
Procedure: as §3

[7] = tested on: NCI-H2228 (EML4-ALK, V3) cells; test: Growth inhibition IC50 in lung adenocarcinoma H2228 cells (WST); type: cell-based; settings: Homo sapiens, WST (Table 3)
Excerpt: Experiments were repeated at least three times.
Besides above, we also tested the dosage-dependent effects on the growth inhibition in H2228 cells. […] (Table 3).

Ba/F3 (EML4-ALK/C1156Y) = target: T3, Ba/F3 (EML4-ALK/C1156Y) (Homo sapiens, UniProt Q9UM73, C1156Y, cells depend on it); test: Growth inhibition IC50 in Ba/F3 cells expressing EML4-ALK C1156Y; type: cell-based
T3 construct: Q9HC35 (Echinoderm microtubule-associated protein-like 4)
Procedure: as §3

[8] = tested on: PC9 (EGFR, exon 19 del) cells; test: Growth inhibition IC50 in EGFR mutant lung adenocarcinoma PC9 cells; type: cell-based; settings: Homo sapiens, PC-9; PC9 cells, CTB, n ≥ 3; read-out: Half Inhibitory Concentration (IC50) Mean
Procedure: as §2, §3

[9] = target: T4, ALK protein in SR (NPM-ALK) cells (Homo sapiens, UniProt Q9UM73); test: Western blot of ALK protein level (degradation, DC50), ALK phosphorylation and downstream signaling in SR cells; type: cell-based
T4 construct: NPM (nucleophosmin, NPM1, P06748) fusion partner; host or cells: SR (ALCL) cells; the other entry of the earlier key: NPM1 (P06748, Nucleophosmin)

[10] = tested on: ALK protein in H2228 (EML4-ALK) cells; test: Western blot of ALK protein level, ALK phosphorylation and downstream signaling in H2228 cells; type: cell-based
Procedure: Cancer cells were seeded in 1 ml RPMI1640 medium in 24-well plate at the density of 3×10^5 or 1.5×10^5 cells/ml. The next day cells were treated with different concentration of drugs for 16 hours. Then cells were washed twice with PBS and lyzed in RIPA lysis buffer with Halt Proteinase and Phosphotase inhibitor. Equal amount of proteins were loaded to run SDS-PAGE gels after denature. The gels were blotted to PVDF membrane. After incubating with first and secondary antibodies, the images were developed using SuperSignal West Pico Chemiluminescent Substrate.
The effect of Brigtinib based PROTAD molecules on the ALK protein total level were studied by western blot in ALCL SR (NPM-ALK) cell line and lung adenocarcinoma cell line H2228 and H3122 (EML4-ALK).
The effects of compounds SIAIS164008 and SIAIS164018 of the present invention on the activation of ALK mediated signaling pathways were also studied in SR cells and H2228 cells. […] The overall effect of compound of SIAIS164018 was better than that of SIAIS164008.

ALK protein in SR cells = target: T5, ALK protein in SR cells (Homo sapiens, UniProt Q9UM73); test: Block of ALK degradation by proteosome inhibitors MG132 and MLN4924 in SR cells; type: cell-based
T5 construct: NPM (nucleophosmin, NPM1, P06748) fusion partner; host or cells: SR (ALCL) cells; the other entry of the earlier key: NPM1 (P06748, Nucleophosmin)
Excerpt: To further validate the degradation effect act through proteosome mediated pathway, we also treated cells with two different proteosome inhibitors MG132 and MLN4924 to block protein degradation (FIG. 16).

[11] = Pharmacokinetics (PK) study in SD rat (IV, IP, PO; LC-MS/MS); type: in vivo; settings: Sprague-Dawley, serum
Procedure: SD rat were used to study the PK of ALK PROTAD compounds. ALK PROTAD compounds SIAIS164008, SIAIS164018, SIAIS164023 and SIAIS151118 were administrated into SD rat via three different routes: IV (Intravenous Injection), IP (Intraperitoneal Injection) and PO ([…]). Blood samples at different sampling time points up to 24 hours post dosing were collected from each animal and analyzed with LC-MS/MS to calculate the PK for each chemical.

Ba/F3 (EML4-ALK/WT) = target: T6, Ba/F3 (EML4-ALK/WT) (Homo sapiens, UniProt Q9UM73); test: Growth inhibition IC50 in Ba/F3 cells expressing EML4-ALK wild type; type: cell-based
T6 construct: Q9HC35 (Echinoderm microtubule-associated protein-like 4)
Procedure: as §3

[12] = tested on: PC9Brc1 (EGFR, exon 19 del+T790M) cells; test: Growth inhibition IC50 in EGFR mutant lung cancer PC9Brc1 cells; type: cell-based; settings: CTB, n ≥ 3, read-out: Half Inhibitory Concentration (IC50) Mean
Procedure: as §2, §3

Ba/F3 (EML4-ALK/L1196M) = target: T7, Ba/F3 (EML4-ALK/L1196M) (Homo sapiens, UniProt Q9UM73, L1196M, cells depend on it); test: Growth inhibition IC50 in Ba/F3 cells expressing EML4-ALK L1196M; type: cell-based
T7 construct: Q9HC35 (Echinoderm microtubule-associated protein-like 4)
Procedure: as §3

H2228 cells (EML4-ALK) = test: Colony formation assay in H2228 cells; type: cell-based; settings: about 2 weeks
Procedure: (§1) Cell were digested to become single cell suspension. Cells were seeded in the intensity of 250 cells/well in 12 well plate. Treated cells at the concentration of 100, 250, 500 nM. Fixed cells 2-3 weeks after and stained cells with crystyl violate.
In order to see the effect of ALK PROTAD compounds on the colony formation ability of cancer cells, EML4-ALK mutant lung cancer cells H2228 were firstly seeded in 12 well plate at the density of 200 cells per well. Cells were treated with different ALK PROTAD compounds at different concentration for about 2 weeks.

PC9Brc1 cells = test: Colony formation assay in PC9Brc1 cells; type: cell-based; settings: PC9 Brc1 cells
Procedure: as §1
ALK PROTAD compound SIAIS1210117 and its negative control epimer SIAIS219050 were used.

[13] = Ceritinib based ALK PROTAD compounds (Table 5)

## Cc1cc(Nc2ncc(Cl)c(Nc3ccccc3S(=O)(=O)C(C)C)n2)c(OC(C)C)cc1C1CCNCC1 [Ceritinib, reference compound]
[1]
  increase of progression free survival comparing to second line chemotherapy: about 4 months
[2]; H3122 cells, CTB (Cell Titer Blue)
  IC50: 14 nM
[2]; H3122 cells, CTG (Cell Titer Glo)
  IC50: 44 nM
[3]
  ALK protein level / degradation: did not affect ALK protein level
[4]
  ALK protein level after stop of translation (protein stability): did not show much difference
SR (NPM-ALK) cells; [13]
  IC50: 16 nM

## Cc1cc(Nc2ncc(Cl)c(Nc3ccccc3S(=O)(=O)C(C)C)n2)c(OC(C)C)cc1C1CCN(C(=O)CCC(=O)N[C@H](C(=O)N2C[C@H](O)C[C@H]2C(=O)NCc2ccc(-c3scnc3C)cc2)C(C)(C)C)CC1 [SIAIS074017, (2S,4R)-1-((S)-2-(4-(4-(4-((5-chloro-4-((2-(isopropylsulfonyl)phenyl)amino)pyrimidin-2-yl)amino)-5-isopropoxy-2-methylphenyl)piperidin-1-yl)-4-oxobutanamido)-3,3-dimethylbutanoyl)-4-hydroxy-N-(4-(4-methylthiazol-5-yl)benzyl)pyrrolidine-2-carboxamide]
[2]; Homo sapiens, NCI-H3122, H3122 cells, CTB (Cell Titer Blue)
  IC50: 45 nM
[2]; Homo sapiens, NCI-H3122, H3122 cells, CTG (Cell Titer Glo)
  IC50: 41 nM
[3]
  DC50: 100 to 500 nM
[4]
  ALK protein level after stop of translation (protein stability): significantly reduced ALK protein level
SR (NPM-ALK) cells; [13]
  IC50: 116 nM

## COc1cc(N2CCC(N3CCN(C(=O)CNc4cccc5c4C(=O)N(C4CCC(=O)NC4=O)C5=O)CC3)CC2)ccc1Nc1ncc(Cl)c(Nc2ccccc2P(C)(C)=O)n1 (stereo not shown) [SIAIS164018, 4-((2-(4-(1-(4-((5-chloro-4-((2-(dimethylphosphoryl)phenyl)amino)pyrimidin-2-yl)amino)-3-methoxyphenyl)piperidin-4-yl)piperazin-1-yl)-2-oxoethyl)amino)-2-(2,6-dioxopiperidin-3-yl)isoindoline-1,3-dione]
MOLM13 cells (FLT3-ITD); n = 2, reagent CTG, read-out: Half Inhibitory Concentration (IC50) Mean
  IC50: 79 nM
MOLM13 cells (FLT3-ITD); read-out: IC50
  IC50: 79 nM
[5]
  IC50: 16900 nM
[6]
  IC50: 2760 nM
[7]
  IC50: 17.9 nM
[3]
  DC50: 1 to 10 nM
  ALK protein level / degradation: a similar effects was observed
Ba/F3 (EML4-ALK/C1156Y)
  GI50: 42.7 nM
[8]
  IC50: 150 nM
[9]; ALK protein degradation in SR cells
  DC50: 0.5 to 1 nM
[9]; SR cells, western blot
  concentration at which ALK proteins were degraded: less than 1 nM
  concentration inhibiting the phosphorylation of ALK proteins: 0.1 nM
  downstream signaling pathway (PI3K/AKT, MEK/ERK and STAT3): significantly inhibited
[9]; SR cells, western blot, 16 hours, up to 500 nM
  ALK protein degradation: effectively degrade ALK proteins at nano mole concentration
[10]
  phosphorylation of ALK protein and activation of PI3K/AKT pathway: inhibited
ALK protein in SR cells
  reduction of ALK protein level and its block by MG132 and MLN4924: able to be blocked
[11]; IP, 2 mg/kg
  bioavailability: 157%
[11]; IP, 2 mg/kg, read-out: serum half-life (converted)
  half-life: 3.65 h
[11]; IP, 2 mg/kg, read-out: time to maximal serum peak level (Tmax)
  Tmax: ~2.67 h
[11]; IV, single dose 2 mg/kg, read-out: clearance rate, mean value
  clearance: ~22.6 mL/min/kg
[11]; IV, single dose 2 mg/kg, read-out: serum clearance half-life (converted)
  half-life: ~4.65 h
[11]; PO, 10 mg/kg
  bioavailability: 18.4%
[11]; PO, 10 mg/kg, read-out: Tmax
  Tmax: 2 h
[11]; PO, 10 mg/kg, read-out: serum half-life (converted)
  half-life: 7.09 h
SR (NPM-ALK) cells; 72 h, Brigatinib-based PROTAD molecules (Table 3)
  IC50: 2 ± 1.4 nM
Ba/F3 (EML4-ALK/WT)
  GI50: 30.9 nM
[12]
  IC50: 900 nM
Ba/F3 (EML4-ALK/L1196M)
  GI50: 57.4 nM
H2228 cells (EML4-ALK)
  colony formation: dramatically inhibited

## COc1cc(N2CCC(NC(=O)CCCCCCCCCC(=O)N[C@H](C(=O)N3C[C@@H](O)C[C@H]3C(=O)NCc3ccc(-c4scnc4C)cc3)C(C)(C)C)CC2)ccc1Nc1ncc(Cl)c(Nc2ccccc2P(C)(C)=O)n1 [SIAIS219050, N1-(1-(4-((5-chloro-4-((2-(dimethylphosphoryl)phenyl)amino)pyrimidin-2-yl)amino)-3-methoxyphenyl)piperidin-4-yl)-N11-((S)-1-((2S,4S)-4-hydroxy-2-((4-(4-methylthiazol-5-yl)benzyl)carbamoyl)pyrrolidin-1-yl)-3,3-dimethyl-1-oxobutan-2-yl)undecanediamide]
PC9Brc1 cells
  colony formation: could not
[9]; SR cells, 100 nM, 4 hours (SIAIS1210117), up to 24 hours (epimer)
  ALK protein degradation within a time course: did not induce degradation of ALK protein
ALK protein in SR cells
  reduction of ALK protein level and its block by MG132 and MLN4924: did not have such effect
